This is an account of results in ChEMBL document CHEMBL1136342, “X-ray structures of two xanthine inhibitors bound to PEPCK and N-3 modifications of substituted 1,8-dibenzylxanthines” (Bioorg Med Chem Lett, 2003).

The structures appear in SMILES notation.

A short description of one test: Binding affinity against phosphoenolpyruvate carboxykinase (PEPCK) using isothermal titration calorimetry(ITC).
The molecule `CC(=O)Nc1ccc(Cc2nc3c(=O)n(Cc4ccccc4F)c(=O)n(CCCC(=O)O)c3[nH]2)cc1` returned an inhibition constant (Ki) of 200 nM.

The nature of another test: Inhibition of human phosphoenolpyruvate carboxykinase (PEPCK).
For the molecule `CC(=O)Nc1ccc(Cc2nc3c(=O)n(Cc4ccccc4F)c(=O)n(CCCC(N)=O)c3[nH]2)cc1`, half-maximal inhibition (IC50) required 6600 nM.

Turning to `CC(=O)Nc1ccc(Cc2nc3c([nH]2)c(=O)n(Cc2ccccc2F)c(=O)n3CC(C)C)cc1`, the concentration for half-maximal inhibition (IC50) came out at 2020 nM.

`CC(=O)Nc1ccc(Cc2nc3c(=O)n(Cc4ccccc4F)c(=O)n(CCCCO)c3[nH]2)cc1` registered a half-maximal inhibitory concentration (IC50) of 2850 nM.

For `CC(=O)Nc1ccc(Cc2nc3c(=O)n(Cc4ccccc4F)c(=O)n(CC4C[C@@H]4C(=O)O)c3[nH]2)cc1` (stereo partly specified), the midpoint of inhibition, the IC50, lay at 560 nM.

Turning to `CC(=O)Nc1ccc(Cc2nc3c(=O)n(Cc4ccccc4F)c(=O)n(Cc4ccoc4)c3[nH]2)cc1`, the IC50 came to 4500 nM.

For the molecule `CC(=O)Nc1ccc(Cc2nc3c(=O)n(Cc4ccccc4F)c(=O)n(CC4C[C@@H]4CO)c3[nH]2)cc1` (stereo partly specified), half-maximal inhibition (IC50) required 2270 nM.

In turn, `CCCn1c(=O)n(Cc2ccccc2F)c(=O)c2[nH]c(Cc3ccc(NC(C)=O)cc3)nc21` displayed an IC50 of 1490 nM.

On to `CC(=O)Nc1ccc(Cc2nc3c(=O)n(Cc4ccccc4F)c(=O)n(CC4CCCO4)c3[nH]2)cc1` (stereo unspecified), for which the IC50 was 5700 nM.

In turn, `CC(=O)Nc1ccc(Cc2nc3c(=O)n(Cc4ccccc4F)c(=O)n(CC4CC4(CO)CO)c3[nH]2)cc1` (stereo unspecified) gave an IC50 of 2000 nM.

`CC(=O)Nc1ccc(Cc2nc3c([nH]2)c(=O)n(Cc2ccccc2F)c(=O)n3CC2C[C@@H]2C)cc1` (stereo partly specified): half-maximal inhibition (IC50) was put at 1820 nM.

Molecule `CC(=O)Nc1ccc(Cc2nc3c(=O)n(Cc4ccccc4F)c(=O)n(CC4CCC4)c3[nH]2)cc1` had an IC50 of 1180 nM.

`CCCCCCn1c(=O)n(Cc2ccccc2F)c(=O)c2[nH]c(Cc3ccc(NC(C)=O)cc3)nc21` returned an IC50 of 8900 nM.

As for `CC(=O)Nc1ccc(Cc2nc3c(=O)n(Cc4ccccc4F)c(=O)n(CCC(=O)O)c3[nH]2)cc1`, the IC50 turned out to be 2000 nM.

On to `CC(=O)Nc1ccc(Cc2nc3c([nH]2)c(=O)n(Cc2ccccc2F)c(=O)n3CC2CC2)cc1`, for which half-maximal inhibition (IC50) required 690 nM.

For `CCCCn1c(=O)n(Cc2ccccc2F)c(=O)c2[nH]c(Cc3ccc(NC(C)=O)cc3)nc21`, the IC50 amounted to 2110 nM.

As to `COC(=O)[C@H]1CC1Cn1c(=O)n(Cc2ccccc2F)c(=O)c2[nH]c(Cc3ccc(NC(C)=O)cc3)nc21` (stereo partly specified), the IC50 was determined as 3000 nM.

Consider `CC(=O)Nc1ccc(Cc2nc3c(=O)n(Cc4ccccc4F)c(=O)n(CCCC(=O)O)c3[nH]2)cc1`, for which the IC50 is 1950 nM.

On to `CC(=O)Nc1ccc(Cc2nc3c(=O)n(Cc4ccccc4F)c(=O)n(CC4CCCCO4)c3[nH]2)cc1` (stereo unspecified), for which the IC50 was 4500 nM.

With `CC(=O)Nc1ccc(Cc2nc3c(=O)n(Cc4ccccc4F)c(=O)n(CC4CCCC4)c3[nH]2)cc1`, it took 3050 nM to reach half-maximal inhibition (IC50).

Consider `CC(=O)Nc1ccc(Cc2nc3c(=O)n(Cc4ccccc4F)c(=O)n(CCCO)c3[nH]2)cc1`, for which the IC50 is 5450 nM.
